Source: patent US11116748B2, “Compositions and methods for reducing weight gain” (THE MEDICAL COLLEGE OF WISCONSIN, INC., priority 2018, dated 2021)

What was measured:
[1] = tested on: C57bl/6J female mice; assay: Supplementation with L. reuteri (daily gavage) with or without risperidone in drinking water: body mass and visceral fat pads; type: in vivo; settings: risperidone-treated mice, 64 days, relative to risperidone plus L. reuteri lacking reutericyclin production; Wilcoxon p<0.05
[2] = tested on: C57bl/6J female mice; assay: Risperidone treatment for 60 days, weight gain in mice; type: in vivo; settings: risperidone for 60 days, vs control
Procedure: Shotgun metagenomic sequencing data (MiSeq, 2×250, high yield) from stool DNA were analyzed on the Anvi'o visualization platform. Bacterial genomes were refined to either genus or species level and ordered as slices within a ring by gene similarity (hierarchical clustering with a Hidden Markov Model).

[3] = tested on: gut microbiome; settings: risperidone; cited from earlier work

| Compound | weight gain (body mass increase) [1] | weight gain [2] | growth of organisms under anaerobic conditions [3] |
| --- | --- | --- | --- |
| CCCCCCC/C=C/C(=O)N1C(O)=C(C(C)=O)C(=O)[C@H]1CC(C)C [reutericyclin, (5R)-1-(2-decenoyl)-2-hydroxy-3-acetyl-5-isobutyl-Δ2-pyrroline-4-one] | prevents weight gain |  |  |
| Cc1nc2n(c(=O)c1CCN1CCC(c3noc4cc(F)ccc34)CC1)CCCC2 [risperidone] |  | statistically significant weight gain | selectively suppressed growth of organisms under anaerobic conditions |
